This is an account of results in patent US20210353658A1, “COMPOSITION AND METHOD OF INHIBITING CORTISONE REDUCTASE” (Amorepacific Corporation, priority 2018, published 2021).

Experiment [1] has as its target T1, 11β-hydroxysteroid dehydrogenase type 1 (Homo sapiens, UniProt P28845).
T1 construct: endogenous in cells; host or cells: normal human epidermal keratinocytes (NHEK), UVB-irradiated
The experiment in a line: Cortisone reductase activity inhibition: cortisol concentration in the culture solution of UVB-irradiated, cortisone-treated NHEK, by ELISA. Format: cell-based. Particulars: UVB 25 mJ/cm^2, cortisone 10 μg/ml, compound 10 μg/ml, cultured 4 days, ELISA (FIG. 1). How it is done:
(§1) Normal human epidermal keratinocytes (NHEK) were cultured in a 6-well plate incubator. Specifically, the normal human epidermal keratinocytes (NHEK) were cultured for 4 days by replacing it with phosphate-buffered saline (PBS) after 24 hours to irradiate UVB (25 mJ/cm^2) and adding cortisone (10 μg/ml) and a compound represented by Chemical Formula 1-1 (glucocerebrosides (soy, 98%), Avanti Polar Lipids, Inc.) to NHEK culture media.
Subsequently, the cell culture solution was collected to measure a cortisol concentration in an ELISA method, and the results are shown in FIG. 1. […] Accordingly, a composition including the compound represented by Chemical Formula 1-1 as an active ingredient according to an embodiment turned out to inhibit activity of 11β-hydroxysteroid dehydrogenase type 1 that is cortisone reductase.
On the technique in general: An ELISA detects its analyte on a solid surface through an enzyme-linked reagent.

Experiment [2] has as its system keratinocyte differentiation markers of KRT1 and KRT10. The experiment in a line: RT-qPCR (TAQMAN real-time PCR) gene expression of keratinocyte differentiation markers in UVB-irradiated NHEK. Particulars: compound 10 μg/ml. It is filed as cell-based, human. On the procedure:
as §1
In addition, the normal human epidermal keratinocytes (NHEK) were treated with TRIZOL to separate RNA, which was used to synthesize cDNA through RT-PCR (reverse transcriptional polymerase chain reaction). The synthesized cDNA was used to perform TAQMAN® real-time PCR and measure gene expression amounts of keratinocyte differentiation markers of KRT1 and KRT10, and the results are shown in FIGS. 2 and 3. Referring to FIGS. 2 and 3, in the well to which the compound represented by Chemical Formula 1 (10 μg/ml) was added, the gene expression of the keratinocyte differentiation markers (KRT10, KRT1) inhibited by ultraviolet (UVB) rays in the keratinocytes was increased. […]
(In general: Real-time PCR tracks product formation cycle by cycle.)

T1 sequence (P28845 whole entry): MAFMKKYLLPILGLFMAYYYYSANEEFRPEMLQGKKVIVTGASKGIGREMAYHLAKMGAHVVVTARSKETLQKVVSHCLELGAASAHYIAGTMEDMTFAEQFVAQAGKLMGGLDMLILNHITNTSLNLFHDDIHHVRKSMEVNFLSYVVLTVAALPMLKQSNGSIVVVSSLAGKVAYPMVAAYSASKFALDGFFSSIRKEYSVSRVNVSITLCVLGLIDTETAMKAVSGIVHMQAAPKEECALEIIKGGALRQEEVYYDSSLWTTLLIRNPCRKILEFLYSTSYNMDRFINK

On to `CCCCCCCCC/C=C/CC/C=C/[C@@H](O)[C@H](CO[C@@H]1OC(CO)[C@H](O)C(O)C1O)NC(=O)C(O)CCCCCCCCCCCCCC` (stereo partly drawn) [Chemical Formula 1-1, glucocerebrosides (soy, 98%)], for which the “cortisol concentration in cell culture solution” value in experiment [1] is “greatly did not increase”. For the same compound, in experiment [2] (RT-qPCR (FIG. 2)), the “gene expression of keratinocyte differentiation marker KRT10 inhibited by UVB” value is “increased”. Besides, the “gene expression of keratinocyte differentiation marker KRT1 inhibited by UVB” value in experiment [2] (RT-qPCR (FIG. 3)) is “increased”.
